Source: the supplement of paper PMC11451515

Tested on: SEM cells
Test: cell viability relative to DMSO control; higher = less cytotoxic
Conditions: 48 h
How it was run: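 Library compounds in DMSO were pin-dosed into 1536-well plates (5 μl) holding NOMO1 or SEM (500 cells/well) or P12-Ichikawa (1000 cells/well) leukemia cells, across an 11-point threefold series of 47 μM to 0.79 nM. Each cell line had been adapted for at least four passages in each medium. CellTiter-Glo One luminescence was read after 48 h at 37°C. Viability is the per-plate percentage relative to DMSO wells, with cell-free wells as background.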

[1] = HPLM + 10% dialyzed FBS, 0.000781 µM
[2] = HPLM + 10% dialyzed FBS, 0.00234 µM
[3] = HPLM + 10% dialyzed FBS, 0.00702 µM
[4] = HPLM + 10% dialyzed FBS, 0.0211 µM
[5] = HPLM + 10% dialyzed FBS, 0.0632 µM
[6] = HPLM + 10% dialyzed FBS, 0.19 µM
[7] = HPLM + 10% dialyzed FBS, 0.569 µM
[8] = HPLM + 10% dialyzed FBS, 1.71 µM
[9] = HPLM + 10% dialyzed FBS, 5.12 µM
[10] = HPLM + 10% dialyzed FBS, 15.4 µM
[11] = HPLM + 10% dialyzed FBS, 46.1 µM
[12] = RPMI 5 mM glucose + 10% FBS, 0.000781 µM
[13] = RPMI 5 mM glucose + 10% FBS, 0.00234 µM
[14] = RPMI 5 mM glucose + 10% FBS, 0.00702 µM
[15] = RPMI 5 mM glucose + 10% FBS, 0.0211 µM
[16] = RPMI 5 mM glucose + 10% FBS, 0.0632 µM
[17] = RPMI 5 mM glucose + 10% FBS, 0.19 µM
[18] = RPMI 5 mM glucose + 10% FBS, 0.569 µM
[19] = RPMI 5 mM glucose + 10% FBS, 1.71 µM
[20] = RPMI 5 mM glucose + 10% FBS, 5.12 µM
[21] = RPMI 5 mM glucose + 10% FBS, 15.4 µM
[22] = RPMI 5 mM glucose + 10% FBS, 46.1 µM
[23] = RPMI 5 mM glucose + 10% dialyzed FBS, 0.000781 µM
[24] = RPMI 5 mM glucose + 10% dialyzed FBS, 0.00234 µM
[25] = RPMI 5 mM glucose + 10% dialyzed FBS, 0.00702 µM
[26] = RPMI 5 mM glucose + 10% dialyzed FBS, 0.0211 µM
[27] = RPMI 5 mM glucose + 10% dialyzed FBS, 0.0632 µM
[28] = RPMI 5 mM glucose + 10% dialyzed FBS, 0.19 µM
[29] = RPMI 5 mM glucose + 10% dialyzed FBS, 0.569 µM
[30] = RPMI 5 mM glucose + 10% dialyzed FBS, 1.71 µM
[31] = RPMI 5 mM glucose + 10% dialyzed FBS, 5.12 µM
[32] = RPMI 5 mM glucose + 10% dialyzed FBS, 15.4 µM
[33] = RPMI 5 mM glucose + 10% dialyzed FBS, 46.1 µM

| Structure (SMILES) | cell viability [1] [%] | cell viability [2] [%] | cell viability [3] [%] | cell viability [4] [%] | cell viability [5] [%] | cell viability [6] [%] | cell viability [7] [%] | cell viability [8] [%] | cell viability [9] [%] | cell viability [10] [%] | cell viability [11] [%] | cell viability [12] [%] | cell viability [13] [%] | cell viability [14] [%] | cell viability [15] [%] | cell viability [16] [%] | cell viability [17] [%] | cell viability [18] [%] | cell viability [19] [%] | cell viability [20] [%] | cell viability [21] [%] | cell viability [22] [%] | cell viability [23] [%] | cell viability [24] [%] | cell viability [25] [%] | cell viability [26] [%] | cell viability [27] [%] | cell viability [28] [%] | cell viability [29] [%] | cell viability [30] [%] | cell viability [31] [%] | cell viability [32] [%] | cell viability [33] [%] |
| --- | --- | --- | --- | --- | --- | --- | --- | --- | --- | --- | --- | --- | --- | --- | --- | --- | --- | --- | --- | --- | --- | --- | --- | --- | --- | --- | --- | --- | --- | --- | --- | --- | --- |
| C[C@H](Cc1ccc(O)c(O)c1)[C@@H](C)Cc1ccc(O)c(O)c1 | 123 | 121 | 113 | 116 | 130 | 116 | 29 | 118 | 122 | 105 | 28.8 | 117 | 110 | 105 | 104 | 117 | 103 | 37.3 | 118 | 128 | 101 | 6.24 | 144 | 113 | 119 | 128 | 131 | 116 | 36.6 | 109 | 112 | 109 | 7.68 |
| NNc1nncc2ccccc12 | 76.2 | 105 | 109 | 103 | 117 | 122 | 112 | 136 | 126 | 117 | 132 | 87.8 | 114 | 128 | 128 | 152 | 125 | 156 | 162 | 131 | 134 | 115 | 89.6 | 124 | 125 | 143 | 152 | 135 | 147 | 163 | 153 | 156 | 158 |
| Oc1ccc(-c2ccc(-c3cc(Nc4cccc(CNC5CC5)c4)[nH]n3)cc2)c(O)c1 | 82.4 | 100 | 93.7 | 93.7 | 70.7 | 103 | 91.1 | 46.7 | 25.7 | 9.24 | 6.68 | 97.8 | 106 | 95 | 101 | 72.6 | 89.7 | 110 | 94.5 | 45.7 | 27.4 | 4.97 | 89 | 96.9 | 100 | 87.9 | 84.1 | 99.6 | 100 | 84.8 | 60.2 | 22.8 | 9.47 |
| Cc1ccc(-c2cc(C(F)(F)F)nn2-c2ccc([S+](N)(=O)[O-])cc2)cc1 | 112 | 113 | 106 | 125 | 119 | 126 | 121 | 122 | 106 | 109 | 91.3 | 84.8 | 109 | 110 | 110 | 126 | 122 | 122 | 102 | 102 | 105 | 83.9 | 120 | 121 | 126 | 127 | 120 | 123 | 120 | 111 | 117 | 140 | 87.4 |
| O=C(NCc1ccccc1)c1csc(Nc2ccncn2)n1 | 84 | 77.5 | 97 | 106 | 108 | 75.7 | 74.4 | 50.4 | 17.2 | 4.02 | 1.49 | 97.4 | 82.9 | 99.5 | 96.3 | 108 | 55.3 | 67.8 | 29.2 | 9.72 | 2.63 | 1.31 | 89.6 | 69.1 | 94.8 | 103 | 108 | 81.5 | 85.9 | 43.7 | 17.4 | 2.76 | 1.35 |
| COc1ccc(C2(C#N)CCC(C(=O)O)CC2)cc1OC1CCCC1 (stereo unspecified) | 85.5 | 97.5 | 95.9 | 101 | 99.6 | 102 | 103 | 94.7 | 105 | 106 | 114 | 77.3 | 85.3 | 94.1 | 90.4 | 87.4 | 95.5 | 104 | 95.8 | 88.3 | 99.4 | 99.6 | 81.8 | 86.8 | 104 | 94.4 | 84.3 | 95.5 | 92.2 | 100 | 90.4 | 96.9 | 96.3 |
| CCCCc1nc2cc(/C=C/C(=O)NO)ccc2n1CCN(CC)CC | 91.9 | 91.8 | 105 | 98.1 | 108 | 108 | 92.6 | 61.1 | 6.03 | 4.68 | 5.88 | 85.4 | 99.1 | 94.8 | 97.8 | 109 | 107 | 94 | 73 | 5.16 | 4.06 | 5.64 | 82.9 | 79.1 | 95.6 | 94 | 77.5 | 99.6 | 76.6 | 57.7 | 6.04 | 4.68 | 6.77 |
